Legend:
[1] = target: bovine isorhodopsin (rod opsin regenerated with 9-cis-retinal), photoactivated (bovine) (UniProt P02699)
[2] = target: bovine rod opsin in ROS disc membranes (bovine) (UniProt P02699)
mouse P23H opsin = target: T1, mouse P23H opsin (Mus musculus, UniProt P15409, P23H); assay: High-content imaging analysis of P23H opsin immunostaining in NIH3T3-(P23H opsin/GFP) cells; assay type: cell-based; conditions: ratio of P23H rod opsin fluorescence on plasma membrane to whole cell; for EC50: read-out: Immunostaining HCS MEM-Total ratio EC50
T1 construct: expressed in transfected cells
Description: To characterize the effect of active compounds on the localization of P23H-mutant opsin in mammalian cells, an image-based assay was used with cells immunostained for WT or P23H-mutant opsin protein[18]. Briefly, NIH3T3-(P23H opsin/GFP) or NIH3T3-(WT-opsin/GFP) cells were seeded at 5000 cells per well in a 384-well cell-carrier plate (PerkinElmer) and incubated at 37 °C with 5% CO2 for 2 h. Cells were treated with compounds as described for the β-Gal fragment complementation assay and incubated in assay medium for 24 h. The assay medium then was aspirated, and cells were fixed with 4% paraformaldehyde at 20 µL per well for 20 min at RT. Cells were immunostained in one of two ways: cell membranes were either permeabilized with 0.1% Triton X-100 for 15 min or left intact and then were incubated with 10% goat serum (Life Technologies). To detect opsin on the cell plasma membrane only, intact cells were immunostained with 20 µL per well of 20 µg mL^−1 B6-30 anti-rhodopsin antibody that recognizes the N-terminal epitope on the extracellular side of rhodopsin. To detect total opsin, cells were permeabilized with Triton X-100 and immunostained with 50 µg mL^−1 1D4 anti-rhodopsin antibody specific for the C-terminal epitope on the intracellular side of rhodopsin. Opsin immunostaining was visualized by incubating cells with 5 µg mL^−1 Cy3-conjugated goat anti-mouse IgG antibody. Three washes with phosphate-buffered saline (PBS: 10 mM Na2HPO4, 1.8 mM KH2PO4, pH 7.4, 137 mM NaCl, and 2.7 mM KCl) were performed between each step of incubation with antibody. In the last wash with PBS, DAPI was added to each well at 300 nM. Fluorescence images were obtained with the Operetta High Content Imaging System (PerkinElmer) using a ×20 long objective. Five fields were taken of each well for cell images using three channels for fluorescence: GFP (100 ms), Cy3 (300 ms), and DAPI (50 ms). Images were analyzed with Acapella software from the Columbus data storage and analysis system (PerkinElmer)[18]. For cells immunostained with opsin on the non-permeabilized cell membrane only, an average of total fluorescence intensity of Cy3 per cell was used to quantify opsin in each well of the 384-well plate. For cells immunostained with opsin in permeabilized whole cells, an average ratio of Cy3 intensity on the cell plasma membrane (PM) to that of the entire cell (opsin ratio PM-to-total) was calculated for each well of a 384-well plate to quantify opsin transport to the plasma membrane. The plasma membrane was defined within ± 5% of the cell border.

P23H opsin = target: T2, P23H opsin (Mus musculus, UniProt P15409, P23H); assay: Immunoblot of P23H opsin glycosylation in NIH3T3 cell lysates; assay type: cell-based; set-up: key to Improved glycosylation: n = no; y = yes; conditions: P23H opsin
T2 construct: expressed in transfected cells
Description: NIH3T3-(P23H opsin/GFP) or NIH3T3-(WT-opsin/GFP) cells were seeded in a 48-well plate (Corning Costar) at 3.2 × 10^5 cells per well and incubated at 37 °C with 5% CO2 for 2 h. One hundred-µL of assay medium containing a compound at 5× its final concentration was added to each well. The plate was gently shaken for 5 s before further incubation at 37 °C with 5% CO2 for 24 h. The assay medium then was aspirated, and cells were lysed with 100 µL per well PBS containing 0.1% Triton X-100 and complete protease inhibitor cocktail (Roche, Basel, Switzerland) followed by sonication for 3 s. Protein concentrations were determined with the Bradford assay. For PNGaseF catalyzed deglycosylation, 3 µL of PNGaseF (1500 U, NEB) was added to the cell lysate and the mixture was incubated at room temperature for 1 h before immunoblotting. For NIH3T3-(P23H opsin/GFP) cells, 15 µg of total protein were loaded per well onto an SDS-polyacrylamide gel; whereas for NIH3T3-(WT-opsin/GFP) cells, 5 µg of total protein was loaded per well. Opsin protein was immunostained with 0.2 μg mL^−1 horseradish peroxidase-conjugated 1D4 anti-rhodopsin antibody. Band intensities were measured with ImageJ software (http://imagej.nih.gov/ij/; National the Institutes of Health, Bethesda, MD, USA) and normalized to a glyceraldehyde 3-phosphate dehydrogenase (GAPDH) loading control. Full scans of immunoblotted membranes are shown in Supplementary Fig. 8.

mouse P23H-opsin mutant = mouse P23H-opsin mutant (Mus musculus, UniProt P15409, P23H); assay: β-Gal fragment complementation assay: rescue of P23H opsin transport from ER to plasma membrane, U2OS(PLC-EA/P23H-PK) cells; assay type: cell-based; conditions: for β-Gal fragment complementation assay Activity score (%) Max (Exp) / β-Gal fragment complementation assay Activity score (%) Max (fit) / Efficacy: 24 h, 5 µM 9-cis-retinal = 100%; for β-Gal fragment complementation assay Activity score (%) Max (Exp): experimental maximum; for β-Gal fragment complementation assay Activity score (%) Max (fit) / Efficacy: from curve fitting; for EC50: 24 h preincubation, activity standardized to 5 µM 9-cis-retinal as 100%, Hill fit, read-out: β-Gal fragment complementation assay Activity score (%) EC50
Description: U2OS(PLC-EA/P23H-PK) cells. A U2OS stable cell line was generated by DiscoveRx, Inc. (Fremont, CA, USA) for the β-Gal fragment complementation assay used in the small-molecule HTS for rescue of P23H-opsin transport. U2OS cells that continually express P23H-PK and PLC-EA fusion proteins were generated. Briefly, this small subunit of β-Gal (PK fragment) was fused to the C-terminal of the mouse P23H-opsin mutant, while the large EA fragment, a subunit of β-Gal, was fused with PLC, a plasma membrane-anchored peptide. Both constructs were subcloned by DicoveRx, Inc. and transferred into U2OS cells by viral infections. Positive clones were selected under treatment with hygromycin and geneticin.
Briefly, U2OS(PLC-EA /P23H-PK) cells were suspended in assay medium at 3 × 10^5 cells mL^−1. The cell suspension was dispensed into 384-well plates (Greiner Bio-one, Monroe, NC, USA) at 20 µL per well, with a Multidrop dispenser (Thermo Scientific, Waltham, MA, USA). Plates with cells then were centrifuged at 200×g for 15 s before incubation at 37 °C with 5% CO2. Plates were removed 24 h later for treatment with tested compounds. A total of 248 plates containing 79,080 compounds from three small-molecule libraries were paired with an equal number of assay plates with cultured cells. Owing to a limited capacity, these plates were assayed in seven batches. An average of 56.3 nL of 10 mM compound in DMSO was dispensed into each well from column 3 to 22 of paired assay plates using a 50 nL 384-pintool system, such that the final concentration of each compound was 22.52 µM on average. […] Each assay plate was shaken for 5 s before further incubation at 37 °C with 5% CO2. After 24 h, assay plates were removed, and each well was incubated with 25 µL of 1× Gal-Screen assay buffer (1:24 substrate-buffer ratio). Assay plates were incubated in the dark for 60–90 min, and luminescence was read from each assay plate with an Envision microplate reader (PerkinElmer) during a 0.1 s per well integration time. The mean and s.d. of readouts in column 2 of each plate were calculated as Mean0% and SD0%, whereas the average and s.d. of readouts in column 23 were calculated as Mean100% and SD100%. Eq. 1: Activity scores (%) = (RLUcp − Mean0%)/(Mean100% − Mean0%) × 100%, where RLUcp is the relative luminescence unit derived for cells treated with a compound. Eq. 2: Z′-factor = 1–3 × (SD0% + SD100%)/(Mean100% − Mean0%)[32]; Eq. 3: signal-to-background (S/B) ratio = Mean100%/Mean0%. Activities of all tested compounds were registered with their compound ID by GeneData Screener (Genedata, Basel, Switzerland) and Pipeline Pilot software (Accelrys, San Diego, CA, USA). Hits, cherry-picked from a separate stock dose-dependent activity test, were selected with an activity score cutoff at 20%. Activity of each hit was tested again with the β-Gal fragment complementation assay in a 10-dose series with each dose tested in triplicate. The 10 doses tested were 80, 40, 20, 10, 5, 2.5, 1.25, 0.625, 0.313, and 0.156 µM. Dose-dependent curves of each hit compound were fitted with GeneData and Origin software.
Detailed synthetic steps are described in Supplementary Note and Supplementary Fig. 9. […] YC-002-YC-021 were purchased from commercial vendors including Enamine LLC (Monmouth Jct., NJ, USA), Matrix Scientific (Columbia, SC, USA) and Tokyo Chemical Industry Co., Ltd. (Portland, OR, USA). […] Activities of YC compounds were tested with the β-Gal fragment complementation assay, as described in a prior section. All YC compounds were tested at 10 doses, each in triplicate: 80, 40, 20, 10, 5, 2.5, 1.25, 0.625, 0.313, and 0.156 µM.

Chain of Gt (P04695 whole entry, looked up): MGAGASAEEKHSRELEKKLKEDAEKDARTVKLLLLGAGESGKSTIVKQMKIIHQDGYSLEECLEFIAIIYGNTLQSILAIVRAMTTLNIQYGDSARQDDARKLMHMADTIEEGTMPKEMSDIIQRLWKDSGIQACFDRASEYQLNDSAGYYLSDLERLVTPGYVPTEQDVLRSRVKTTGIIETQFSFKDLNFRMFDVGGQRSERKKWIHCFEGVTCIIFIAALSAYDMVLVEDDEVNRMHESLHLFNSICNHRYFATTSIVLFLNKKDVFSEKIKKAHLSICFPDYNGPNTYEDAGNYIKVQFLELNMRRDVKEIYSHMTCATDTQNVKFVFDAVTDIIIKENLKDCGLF
Chain of bovine rod opsin in ROS disc membranes (bovine) (P02699 whole entry): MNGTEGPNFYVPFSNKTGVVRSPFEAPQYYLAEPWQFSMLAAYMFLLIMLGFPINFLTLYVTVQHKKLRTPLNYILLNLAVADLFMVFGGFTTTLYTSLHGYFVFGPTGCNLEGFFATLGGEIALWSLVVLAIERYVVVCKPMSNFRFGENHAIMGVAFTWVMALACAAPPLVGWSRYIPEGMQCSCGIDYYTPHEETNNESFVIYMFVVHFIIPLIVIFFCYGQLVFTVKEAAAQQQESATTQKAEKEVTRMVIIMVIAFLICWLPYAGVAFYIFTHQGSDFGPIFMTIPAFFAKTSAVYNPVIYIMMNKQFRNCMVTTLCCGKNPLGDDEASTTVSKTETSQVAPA
Chain of bovine isorhodopsin (rod opsin regenerated with 9-cis-retinal), photoactivated (bovine) (P02699 whole entry): as above

initial rate of Gt activation upon illumination (intrinsic Gtα fluorescence after addition of 300 µM GTPγS), isorhodopsin regenerated with 40 µM 9-cis-retinal alone [1] | initial rate of Gt activation upon illumination (intrinsic Gtα fluorescence after addition of 300 µM GTPγS), isorhodopsin regenerated with 40 µM 9-cis-retinal and 40 µM YC-001 together [1] | initial rate of Gt activation (intrinsic Gtα fluorescence after addition of 300 µM GTPγS), opsin membranes treated with 40 µM YC-001 [2] | initial rate of Gt activation (intrinsic Gtα fluorescence after addition of 300 µM GTPγS), opsin membranes treated with 40 µM YC-014 [2] | initial rate of Gt activation (intrinsic Gtα fluorescence after addition of 300 µM GTPγS), opsin membranes treated with DMSO [2] | Immunostaining HCS MEM-Total ratio Max (fit) (mouse P23H opsin) | EC50 (mouse P23H opsin) [µM] | Improved glycosylation (P23H opsin) | β-Gal fragment complementation assay Activity score (%) Max (Exp) (mouse P23H-opsin mutant) [%] | β-Gal fragment complementation assay Activity score (%) Max (fit) / Efficacy (mouse P23H-opsin mutant) [%] | EC50 (mouse P23H-opsin mutant) [µM] | Compound
-4.6 | -4.9 | -6.1 | -5.7 | -5.3 | – | – | – | – | – | – | Gt (from UniProt P04695 1-350) (complex)
– | – | – | – | – | 0.041 | 6.2 | n | 31.8 | 51.6 | 25 | O=C(NCCCOc1cccc2cccnc12)c1cc(-c2ccccc2)on1 [Compound F5875-0200]
– | – | – | – | – | 0.022 | 1.07 | n | 211 | 234 | 10.7 | Cc1cc(OCC(=O)Nc2cc(N3CCOCC3)ncn2)cc(C)c1Cl [Compound F6257-1860]

Reference: paper PMC5958115, “A novel small molecule chaperone of rod opsin and its potential therapy for retinal degeneration” (Nature Communications, 2018)
